ChEMBL document CHEMBL3244159, “Ultraviolet photoelectron spectroscopy of cyclic amidines. 1. Electronic structure of some alpha-adrenergic benzylimidazolines” (J Med Chem, 1979)

Columns and labels:
Oryctolagus cuniculus = species on record: Oryctolagus cuniculus; assay: Binding affinity to alpha-adrenergic receptor in rabbit jejunum; assay type: tissue-based
[1] = target: Adrenergic receptor alpha; assay: Displacement of [3H]clonidine from alpha-adrenergic receptor in rat brain; assay type: tissue-based

SMILES | pD2 (Oryctolagus cuniculus) | Ki [1]
Cc1cc(C(C)(C)C)cc(C)c1CC1=NCCN1 | 7.1 | 
Cc1cc(C(C)(C)C)c(O)c(C)c1CC1=NCCN1 | 9.8 | 
c1ccc2c(CC3=NCCN3)cccc2c1 | 7.1 | 
c1ccc2c(c1)CCCC2C1=NCCN1 (stereo not given) [TETRAHYDROZOLINE] | 6.5 | 0.011 µM
